Test [1] addresses Paired box protein Pax-8 (Homo sapiens, UniProt Q06710). Description: PAX8 transcriptional activity inhibition in RMG-I – RMG-I cells, luciferase, cherry-pick, dose response (AID 687027).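 Further: luciferase reporter driven by Pax8 target thyroperoxidase promoter measured by SteadyGlo luminescence.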 In kind it is functional, cell-based.
A short description of test [2]: toxicity toward immortalized ovarian surface epithelium – cell-based, plate reader, dry powder samples, cytotoxicity control for PAX8 inhibitor project, dose response (AID 743045). Type of test: functional.
The nature of test [3]: A2780 cell killing – plate reader, dry powder samples, cytotoxicity control, dose response (AID 743046). Type of test: functional, cell-based.
A short description of test [4]: OVCAR-3 cell viability loss – plate reader, dry powder samples, PAX8 inhibitor project, dose response (AID 743044). In kind it is functional, cell-based.
A short description of test [5]: IGROV1 cell killing – plate reader, dry powder samples, PAX8 inhibitor project, dose response (AID 743043). The settings on record: IGROV-1. In kind it is functional, cell-based.
A short description of test [6]: OVCAR8 cell viability loss – plate reader, dry powder samples, PAX8 project, dose response (AID 743197). In kind it is functional, cell-based. Particulars: OVCAR-8.
Test [7] can be described thus: ATP-based viability loss in HepG2 cells – cell-based, CellTiter-Glo luminescence, dry powder, set 3, cytotoxicity control, dose response (AID 720594). Type of test: functional. Background: ATP-based viability assays read luminescence as a measure of living cells.
Test [8] can be described thus: ATP-based viability loss in HEK293T cells – cell-based, CellTiter-Glo luminescence, dry powder, set 2, cytotoxicity control, dose response (AID 720595). Particulars: HEK293. Type of test: functional.
Test [9] is described as follows: ATP-based viability loss in HeLa cells – cell-based, CellTiter-Glo luminescence, dry powder, set 2, cytotoxicity control, dose response (AID 720593). Type of test: functional.
Test [10] has as its target NAD-dependent protein deacylase sirtuin-5, mitochondrial (Homo sapiens, UniProt Q9NXA8). Description: sirtuin-5 deacylation blockers, concentration series – biochemical, fluorescence imaging, cherry-pick, set 5, dose response (AID 720591).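 Further: desuccinylation of succinyl peptide AMC substrate read as fluorescence after trypsin release; potency of inhibitors that lower fluorescence and may act on trypsin instead.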
Test [11] in a line: viability loss in A549 lung cells – cell-based, 24 h, CellTiter-Glo luminescence, cherry-picks, cytotoxicity control, dose response (AID 1053115). In kind it is functional. Particulars: A549, 24 h.
Test [12] is described as follows: inhibitors of TRPM1-promoter reporter in SK-MEL-5 – cell-based, luciferase, dry powder, set 9, MITF inhibitor project, dose response (AID 651588). Type of test: functional.
Test [13] can be described thus: cytotoxicity in MITF-independent A375 cells – cell-based, CellTiter-Glo luminescence, dry powder, set 4, counter-screen for MITF inhibitor project, dose response (AID 624364).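 Further: A375 melanoma cells are MITF independent so this is a counter screen.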 In kind it is functional. Particulars: A-375.
A short description of test [14]: viability loss in MITF-independent A375 cells – cell-based, CellTiter-Glo luminescence, dry powder, set 7, counter-screen for MITF inhibitor project, dose response (AID 624490). Particulars: A-375. In kind it is functional.
A short description of test [15]: MITF Orthogonal Assay: MALME3 CTG Assay Measured in Cell-Based System Using Plate Reader - 2084-04_Inhibitor_Dose_DryPowder_Activity_Set6. In kind it is functional. The settings on record: MALME-3.
The nature of test [16]: growth inhibition of SK-MEL-5 melanoma cells – cell-based, CellTiter-Glo luminescence, dry powder, set 8, orthogonal assay for MITF inhibitor project, dose response (AID 651586). In kind it is functional.
Test [17] in a line: growth inhibition of MALME3 cells – cell-based, CellTiter-Glo luminescence, dry powder, set 5, orthogonal assay for MITF inhibitor project, dose response (AID 651584). Particulars: MALME-3. Type of test: functional.
Test [18] can be described thus: cytotoxicity in melanoma parental cells – cell-based, CellTiter-Glo, dry powder, set 6, MITF inhibitor project, dose response (AID 624429). Type of test: functional. Particulars: SK-MEL-5.
A short description of test [19]: MITF Orthogonal Assay: SK-MEL-5 CTG Assay Measured in Cell-Based System Using Plate Reader - 2084-02_Inhibitor_Dose_DryPowder_Activity_Set5. In kind it is functional.
Test [20] is described as follows: viability loss in MITF-independent A375 cells – cell-based, CellTiter-Glo luminescence, dry powder, set 6, counter-screen for MITF inhibitor project, dose response (AID 624488). In kind it is functional. Particulars: A-375.
Test [21] can be described thus: MITF Measured in Cell-Based System Using Plate Reader - 2084-01_Inhibitor_Dose_DryPowder_Activity_Set6. Type of test: functional.
Test [22] is described as follows: MITF Measured in Cell-Based System Using Plate Reader - 2084-01_Inhibitor_Dose_DryPowder_Activity_Set7. Type of test: functional.
Test [23] in a line: HEK-293T cell viability reduction – luminescence, B-cell screen hits, cytotoxicity control for BCR NF-kB inhibitor project, dose response (AID 489021).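 Further: HEK-293T cells carrying an NF-kB luciferase reporter; cells exposed to compound for about 14 hours before viability readout.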 Type of test: functional, cell-based.
Test [24] can be described thus: inhibitors acting on PAX2 in cells – cell-based, plate reader, dry powder samples, selectivity assay for PAX8 inhibitor project, dose response (AID 743048).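 Further: HEK293 cells carrying a WT1 promoter luciferase reporter driven by expressed Pax2; potency is for inhibition of Pax2 driven reporter signal.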 In kind it is functional.
Test [25] is described as follows: PAX5 cellular inhibition readout – cell-based, plate reader, dry powder samples, selectivity assay for PAX8 inhibitor project, dose response (AID 743047).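 Further: HEK293 cells carrying a Pax5 driven CD19 promoter luciferase reporter; potency of inhibitors that lower reporter luminescence.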 In kind it is functional.
A short description of test [26]: OVCAR4 cell viability loss – plate reader, dry powder, SA11, cytotoxicity control for PAX8 inhibitor project, dose response (AID 743150). In kind it is functional, cell-based. Particulars: OVCAR-4.
Test [27] can be described thus: COV434 cell viability loss – plate reader, dry powder, SA7, cytotoxicity control for PAX8 inhibitor project, dose response (AID 743145). Type of test: functional, cell-based.
A short description of test [28]: PAX8-dependent cell viability loss – plate reader, dry powder, dose response (AID 743049). Type of test: functional, cell-based.

Activity calls are given as the source filed them. Where only a bound is given, the exact number is not on record here.

One may read the AC50 as the midpoint of the concentration-response curve, whichever way the signal moves. For orientation: IC50 means the concentration that gives 50% inhibition.

Chain of Paired box protein Pax-8 (Q06710 whole entry): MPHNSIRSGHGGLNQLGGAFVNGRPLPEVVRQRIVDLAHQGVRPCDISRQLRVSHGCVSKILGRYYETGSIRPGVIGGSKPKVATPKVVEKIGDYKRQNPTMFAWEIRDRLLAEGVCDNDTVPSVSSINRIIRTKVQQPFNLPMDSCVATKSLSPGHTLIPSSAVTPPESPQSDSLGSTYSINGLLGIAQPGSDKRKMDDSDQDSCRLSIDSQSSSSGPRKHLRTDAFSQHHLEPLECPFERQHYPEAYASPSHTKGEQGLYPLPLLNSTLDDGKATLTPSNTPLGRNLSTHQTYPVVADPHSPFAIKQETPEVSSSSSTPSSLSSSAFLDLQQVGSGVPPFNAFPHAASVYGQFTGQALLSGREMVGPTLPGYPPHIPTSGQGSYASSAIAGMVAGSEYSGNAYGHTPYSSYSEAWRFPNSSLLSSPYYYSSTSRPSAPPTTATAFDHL
Chain of NAD-dependent protein deacylase sirtuin-5, mitochondrial (Q9NXA8 whole entry): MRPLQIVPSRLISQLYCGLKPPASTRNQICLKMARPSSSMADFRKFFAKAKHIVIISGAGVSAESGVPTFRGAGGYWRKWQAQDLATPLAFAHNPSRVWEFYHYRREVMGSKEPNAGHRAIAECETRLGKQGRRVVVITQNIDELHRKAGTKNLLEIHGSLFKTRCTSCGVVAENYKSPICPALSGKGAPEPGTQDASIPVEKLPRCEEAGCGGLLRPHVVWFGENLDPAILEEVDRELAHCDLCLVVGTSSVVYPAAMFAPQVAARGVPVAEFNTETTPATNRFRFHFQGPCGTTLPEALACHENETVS

On to `Cc1ccc(S(=O)(=O)Nc2ccc3c(c2)C(=O)N([C@H](C)CO)C[C@H](C)[C@@H](CN(C)S(=O)(=O)c2ccc(C)cc2)OCCCC[C@H](C)O3)cc1`, for which the half-maximal activity concentration (AC50) in test [1] is 5.76 µM (active); in test [2], 23.6 µM (active); in test [3], 34.5 µM (active); in test [4], 18.5 µM (active); in test [5], 44.2 µM (active); in test [6], > 70 µM (inactive).
With `CC(C)C(=O)NC(c1ccco1)c1cc(Cl)c2cccnc2c1O` (stereo not given), the AC50 in test [7] is > 52 µM (inactive); in test [8] it was 8.31 µM (active); in test [9] it was 28.3 µM (active).
`COc1ccc(C)cc1NC(=O)CCN1CC(C)OC(C)C1` (stereo not given): the AC50 in test [10] was > 30 µM (inactive).
As for `OC[C@@H]1Nc2ccc(-c3ccccc3)cc2[C@H]2[C@@H]1CCN2Cc1ccc(F)cc1`, the AC50 in test [11] was 47.6 µM (active).
As for `NC1=C(NS(=O)(=O)c2ccccc2)C(=O)c2ccccc2C1=O`, the AC50 in test [12] is 15.8 µM (active); in test [13] it was > 70 µM (inactive); in [14] it was > 70 µM (inactive); in test [15] it was 22.6 µM (active); in test [16], 17.5 µM (active); in [17] it was 22.6 µM (active). In addition, the AC50 was 16.1 µM (active) in [18]; 16.1 µM (active) in [19]; 54.6 µM (active) in [20]; 7 µM (active) in test [21]; 4.7 µM (active) in test [22].
Consider `CCN(CC(=O)Nc1c(F)cccc1F)C(=O)c1cc(S(=O)(=O)N(C)C)ccc1N1CCCC1`, for which the IC50 in test [23] is > 80 µM (inactive). The AC50 in test [1] is 7.72 µM (active); in test [24], 88.8 µM (active); in test [25], 73.1 µM (active); in test [5], 14.2 µM (active); in test [26], 58.9 µM (active); in test [27], 29.4 µM (active). Further, the AC50 in test [28] is 39.3 µM (active).
